The source of these data is ChEMBL document CHEMBL5233242, “Dihydrofolate reductase inhibitors for use as antimicrobial agents” (Eur J Med Chem, 2020).

Data set [1] is described as follows: Inhibition of Staphylococcus aureus DHFR F98Y mutant.
The subject of data set [2] is Mycobacterium tuberculosis. Nature of the data set: Antibacterial activity against Mycobacterium tuberculosis H37Rv incubated for 7 days by resazurin dye based broth microdilution assay. In kind it is functional. As to conditions: 168 h, time 7 day.
Data set [3] deals with T1, Dihydrofolate reductase (Mycobacterium tuberculosis, UniProt P9WNX1).
T1 sequence (P9WNX1 whole entry): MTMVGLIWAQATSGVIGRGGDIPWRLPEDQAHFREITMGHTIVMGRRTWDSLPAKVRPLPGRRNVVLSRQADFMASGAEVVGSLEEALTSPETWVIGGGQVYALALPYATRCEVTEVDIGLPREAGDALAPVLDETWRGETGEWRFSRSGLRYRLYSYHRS
Description: Inhibition of Mycobacterium tuberculosis DHFR

The subject of data set [4] is Mycobacterium tuberculosis. Nature of the data set: Antibacterial activity against Mycobacterium tuberculosis H37Rv. It is filed as functional.
Data set [5] deals with Mycobacterium tuberculosis. Briefly: Antibacterial activity against Mycobacterium tuberculosis Erdman. It is filed as functional.
The test system of data set [6] is Escherichia coli. Briefly: Antibacterial activity against Escherichia coli NR698. In kind it is functional.
For data set [7], the system named is Escherichia coli. Briefly: Antibacterial activity against Escherichia coli ATCC 25922. It is filed as functional.
Data set [8] is described as follows: Cytotoxicity against african green monkey Vero cells. It is filed as toxicity, cell-based. The conditions noted are these: chlorocebus sabaeus.
Data set [9] has as its system Staphylococcus aureus. Nature of the data set: Antibacterial activity against Staphylococcus aureus ATCC 43300 harboring wild type DHFR. It is filed as functional.
Data set [10] has as its target T2, Dihydrofolate reductase (Staphylococcus aureus, UniProt P0A017). Nature of the data set: Inhibition of wild type Staphylococcus aureus DHFR.
Data set [11] relates to Staphylococcus aureus. Nature of the data set: Antibacterial activity against Staphylococcus aureus harboring DHFR F98Y mutant. It is filed as functional.
In data set [12] the target is T2, Dihydrofolate reductase. Nature of the data set: Inhibition of Staphylococcus aureus DHFR.
The subject of data set [13] is Mycobacterium tuberculosis. Briefly: Antibacterial activity against Mycobacterium tuberculosis H37Ra. It is filed as functional.
Data set [14] deals with Staphylococcus aureus. Briefly: Antibacterial activity against Staphylococcus aureus RN4220 harboring wild type DHFR. In kind it is functional.
For data set [15], the system named is Staphylococcus aureus. Nature of the data set: Antibacterial activity against methicillin resistant Staphylococcus aureus CCARM3167. In kind it is functional.
In data set [16] the test system is Staphylococcus aureus. Nature of the data set: Antibacterial activity against Staphylococcus aureus ATCC 29213 harboring wild type DHFR. It is filed as functional.
Data set [17] in a line: Inhibition of Pseudomonas aeruginosa DHFR.
The test system of data set [18] is Pseudomonas aeruginosa. Briefly: Antibacterial activity against Pseudomonas aeruginosa PA01. In kind it is functional.
The test system of data set [19] is Pseudomonas aeruginosa. Briefly: Synergistic antibacterial activity against Pseudomonas aeruginosa PA01 assessed as fractional inhibitory concentration index in presence of quercetin. It is filed as functional.
Data set [20] concerns Pseudomonas aeruginosa. Nature of the data set: Synergistic antibacterial activity against Pseudomonas aeruginosa PA01 assessed as fractional inhibitory concentration index in presence of gallic acid. In kind it is functional.
The subject of data set [21] is Pseudomonas aeruginosa. Briefly: Synergistic antibacterial activity against Pseudomonas aeruginosa PA01 assessed as fractional inhibitory concentration index in presence of protocatechuic acid. In kind it is functional.
Data set [22] has as its system Pseudomonas aeruginosa. Briefly: Synergistic antibacterial activity against Pseudomonas aeruginosa PA01 assessed as fractional inhibitory concentration index in presence of myricetin. In kind it is functional.

SMILES strings stand for the structures. Values after ≈ are worked out from the molar mass of the structure shown. Values joined by “and” are separate entries in the source; they are usually repeats but may differ in a detail not shown here. Identical values can stand only once.

T2 sequence (P0A017 whole entry): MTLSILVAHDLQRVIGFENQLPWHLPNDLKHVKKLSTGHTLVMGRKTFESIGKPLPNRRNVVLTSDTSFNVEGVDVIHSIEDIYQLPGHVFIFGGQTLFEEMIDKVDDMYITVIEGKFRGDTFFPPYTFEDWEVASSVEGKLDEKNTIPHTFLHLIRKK

In turn, `CCC[C@H]1c2ccccc2C=NN1C(=O)/C=C/c1cc(Cc2cnc(N)nc2N)cc(OC)c1OC` had a concentration for half-maximal inhibition (IC50) in data set [1] of 0.0018 µM.
With `COc1ccc(-c2nc3ccccc3c(=O)[nH]2)cc1`, the minimal inhibitory concentration (MIC) in [2] was 125 µM and 31.5 µg/mL. Also, in data set [3], it took 49.1 µM to reach half-maximal inhibition (IC50).
Take `O=c1[nH]c(=O)c2c(ncn2Cc2ccccc2)[nH]1`: the minimal inhibitory concentration (MIC) in data set [2] is 130 µM and 31.5 µg/mL. In data set [3], the IC50 worked out at 38.6 µM.
Regarding `CCc1nc(N)nc(N)c1C#C[C@H](C)c1cc(OC)cc(-c2ccc(C(=O)O)cc2)c1`, the minimal inhibitory concentration (MIC) in data set [4] and in data set [5] was under 0.072 µM throughout.
As to `CCc1nc(N)nc(N)c1C#C[C@@H](C)c1cc(OC)cc(-c2ccc(C(=O)O)cc2)c1`, the MIC came to 0.0075 µM (≈ 0.00312 µg/mL) in data set [6] and 24 µM (≈ 10 µg/mL) in data set [7].
As to `CCc1nc(N)nc(N)c1C#CCc1cc(OC)cc(-c2ccc(C(=O)O)cc2)c1`, the MIC in data set [4] turned out to be 0.311 µM (≈ 0.125 µg/mL); in [5] it was 1.24 µM (≈ 0.5 µg/mL).
`Nc1nc(N)nc(-c2ccc(OCc3ccc(Cl)cc3)cc2)n1` had a CC50 in data set [8] of 464 µM. Inhibition of growth in data set [4] (MIC) required 1.76 µM (≈ 0.577 µg/mL).
With `CCCCc1nc(Cl)c(C2NC(=O)NC(C)=C2C(=O)Nc2ccc(F)cc2)[nH]1` (stereo not drawn), the IC50 in data set [3] was over 24.6 µM. Also, in data set [4], the MIC turned out to be 0.96 µM (≈ 0.39 µg/mL).
Regarding `CCc1nc(N)nc(N)c1C#C[C@H](C)c1cc(OC)cc(-c2ccncc2)c1`, the MIC stood at 0.874 µM (≈ 0.326 µg/mL) in data set [9] and 14 µM (≈ 5.22 µg/mL) in [11]. Further, the values for the IC50 in data set [10] and in [1] were 0.015 µM and 0.51 µM, respectively.
`Cc1ccc(CN2C(=O)/C(=C3\SC(=S)N(C(=O)O)C3=O)c3ccccc32)cc1` had an IC50 in data set [12] of 0.46 µM.
The compound `COc1cc(-c2nc(N)nc(N)n2)ccc1OCc1ccc(F)cc1` yielded a cytotoxic concentration (CC50) in data set [8] of 360 µM. The compound further came in with an MIC in data set [4] of 3.39 µM (≈ 1.16 µg/mL).
For `Nc1nc(N)c(-c2ccc(C(=O)Nc3cccc(OC(F)(F)F)c3)cc2)c(OCc2cncs2)n1`, the minimal inhibitory concentration (MIC) in data set [13] was 12.4 µM and 6.25 µg/mL.
With `COc1ccc(-c2nc(N)nc(N)n2)cc1Oc1ccc(Cl)cc1`, the CC50 in data set [8] was determined as 335 µM. For the same compound, 4.92 µM (≈ 1.69 µg/mL) was the least that counted as inhibitory in data set [4] (MIC).
In turn, `Nc1nc(N)c2c(ccc3c2ccn3Cc2ccc3ccccc3c2)n1` showed a 50% inhibitory concentration (IC50) in data set [3] of 0.00096 µM. The MIC95 in [4] was 3.12 µM (≈ 1.06 µg/mL).
`CC[C@@H]1CC[C@H]2C(CC)(CC)[C@H](O)CC[C@]2(CC)[C@@]12Cc1c(O)cc3c(c1O2)COC3=O`: the minimal inhibitory concentration (MIC) in data set [14] and in data set [15] was 72.3 µM (≈ 32 µg/mL) in each case. This compound had a concentration for half-maximal inhibition (IC50) in data set [10] of 41.5 µM.
Take `CCc1nc(N)nc(N)c1C#C[C@@H](C)c1cc(OC)cc(-c2ccncc2)c1`: the MIC worked out at 0.11 µM (≈ 0.0411 µg/mL) in [9] and 1.75 µM (≈ 0.653 µg/mL) in data set [11]. Further, the IC50 in [10] is 0.018 µM; in data set [1] it was 0.111 µM.
In the case of `CCCc1cc(N)cc(N)c1Cc1cc(/C=C/C(=O)N2N=Cc3ccccc3C2C=C(C)C)c(OC)c(OC)c1` (stereo not drawn), affinity in data set [10] was put at a Ki of 0.004 µM. This compound came in with a minimum inhibitory concentration (MIC) in [16] of 3.72 µM (≈ 2 µg/mL).
In [4], `Nc1nc(N)c2cc(C(F)(F)F)ccc2n1` showed an MIC99 of 207 µM (≈ 47.2 µg/mL).
In [3], `O=C(O[C@@H]1Cc2c(O)cc(O)cc2O[C@@H]1c1cc(O)c(O)c(O)c1)c1cc(O)c(O)c(O)c1` [EPIGALOCATECHIN GALLATE] returned an IC50 of 10.9 µM. Also, in data set [4], the MIC came out at 4.25 µM (≈ 1.95 µg/mL).
For `O=C(O)c1cc(O)c(O)c(O)c1` [GALLIC ACID], in data set [17], the IC50 was found to be 9620 µM.
On to `O=c1c(O)c(-c2cc(O)c(O)c(O)c2)oc2cc(O)cc(O)c12` [MYRICETIN], for which, in [17], the concentration for half-maximal inhibition (IC50) is 520 µM. The minimum inhibitory concentration (MIC) in data set [18] came to 1550 µM (≈ 493 µg/mL).
In turn, `O=C(O)c1ccc(O)c(O)c1` [PROTOCATECHUIC ACID] returned an IC50 in [17] of 10700 µM.
Compound `O=c1c(O)c(-c2ccc(O)c(O)c2)oc2cc(O)cc(O)c12` [QUERCETIN] came in with an IC50 in data set [17] of 595 µM. Besides, 1650 µM (≈ 499 µg/mL) was the least that counted as inhibitory in data set [18] (MIC).
Consider `Cc1cc(NS(=O)(=O)c2ccc(N)cc2)no1` [SULFAMETHOXAZOLE], for which the midpoint of inhibition in [17], the IC50, lay at 140 µM. In addition, in data set [18], the MIC came to 500 µM (≈ 127 µg/mL). In addition, the “fractional inhibitory concentration index (FICI)” value in data set [19] was 0.38; in data set [20], 0.38; in [21], 0.25; in data set [22] it was 0.38.
In [17], `COc1cc(Cc2cnc(N)nc2N)cc(OC)c1OC` [TRIMETHOPRIM] yielded a half-maximal inhibitory concentration (IC50) of 88.7 µM. The MIC in [18] was 110 µM (≈ 31.9 µg/mL).
